From patent US20260240878A1, “PTP1B/TC-PTP DUAL INHIBITORS AND PROTEIN DEGRADERS” (Purdue Research Foundation, priority 2023, published 2026)
Like-named read-outs stand apart in the source and are kept apart here. *1 amine or outer side, *2 acyl side, *3 side chain or, on linkers, in order; H or OH if unused. Where a SMILES comes first, the peptide text is derived from it. [ ]: non-standard residue; d: D form. The star is where a group is joined. NHBn(4-(4-Me-thiazol-5-yl)) = Cc1ncsc1-c1ccc(CN*)cc1; NHCH2(1,3-C6H4)CH2CO = O=C(Cc1cccc(CN[*:1])c1)[*:2]; F2Pmp = N[C@@H](Cc1ccc(C(F)(F)P(=O)(O)O)cc1)C(=O)O; Phenylacetyl(4-OH,3-OMe) = COc1cc(CC(=O)*)ccc1O; Benzoyl(3-Br,4-Me) = Cc1ccc(C(=O)*)cc1Br; Hyp = O=C(O)[C@@H]1C[C@@H](O)CN1; X3 = O=C(CCC1CCN([*:1])CC1)[*:2]; Tle = CC(C)(C)[C@H](N)C(=O)O; 4Amb = NCc1ccc(C(=O)O)cc1; PEG1 = NCCOCCC(=O)O

Experiments:
[1] = molecular target: T1, PTP1B (Homo sapiens, UniProt P18031); experiment: PTP activity assay with pNPP substrate (IC50, Ki, mode of inhibition); type: biochemical
T1 sequence (P18031 1-435): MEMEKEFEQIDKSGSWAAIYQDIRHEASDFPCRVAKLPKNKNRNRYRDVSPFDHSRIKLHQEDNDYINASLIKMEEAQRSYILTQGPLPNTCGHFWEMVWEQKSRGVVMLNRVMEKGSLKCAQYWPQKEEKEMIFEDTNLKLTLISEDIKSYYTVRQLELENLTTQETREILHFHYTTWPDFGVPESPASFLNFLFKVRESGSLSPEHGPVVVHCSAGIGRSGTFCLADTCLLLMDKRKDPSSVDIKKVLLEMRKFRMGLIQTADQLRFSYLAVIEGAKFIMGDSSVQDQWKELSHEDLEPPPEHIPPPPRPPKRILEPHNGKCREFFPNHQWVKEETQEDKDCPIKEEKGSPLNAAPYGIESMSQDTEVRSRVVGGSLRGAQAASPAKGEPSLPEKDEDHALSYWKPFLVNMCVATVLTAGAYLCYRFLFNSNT
Protocol: (§1) PTP activity was assayed using p-nitrophenyl phosphate (pNPP) as a substrate in DMG buffer (50 mM DMG. pH 7.0, 1 mM EDTA, 150 mM NaCl, 2 mM DTT, 0.1 mg/mL BSA) at 25° C. The assays were performed in 96-well plates. Normally, to determine the IC50 values, the reaction was initiated by the addition of enzyme (for PTP1B and TCPTP, the final concentration was 0.4 nM, for other PTPs, the final concentration was 10 nM) to a reaction mixture (0.2 mL) containing 2 mM (Km for the substrate) pNPP with various concentrations of inhibitors (see FIG. 1). The reaction rate was measured using a SpectraMax Plus 384 Microplate Spectrophotometer (Molecular Devices). Data were fitted using SigmaPlot Enzyme Kinetics Module (Systat Software, Inc.). To determine the mode of inhibition, the reactions were initiated by the addition of enzyme (final concentration for TC-PTP and PTP1B was 0.4 nM) to the reaction mixtures (0.2 mL) containing various concentrations of pNPP with different concentrations of the inhibitor. Data were fitted using SigmaPlot Enzyme Kinetics Module (Systat Software. Inc.).

[2] = molecular target: T2, TC-PTP (Homo sapiens, UniProt P17706); experiment: as above; type: biochemical
T2 sequence (P17706 1-415): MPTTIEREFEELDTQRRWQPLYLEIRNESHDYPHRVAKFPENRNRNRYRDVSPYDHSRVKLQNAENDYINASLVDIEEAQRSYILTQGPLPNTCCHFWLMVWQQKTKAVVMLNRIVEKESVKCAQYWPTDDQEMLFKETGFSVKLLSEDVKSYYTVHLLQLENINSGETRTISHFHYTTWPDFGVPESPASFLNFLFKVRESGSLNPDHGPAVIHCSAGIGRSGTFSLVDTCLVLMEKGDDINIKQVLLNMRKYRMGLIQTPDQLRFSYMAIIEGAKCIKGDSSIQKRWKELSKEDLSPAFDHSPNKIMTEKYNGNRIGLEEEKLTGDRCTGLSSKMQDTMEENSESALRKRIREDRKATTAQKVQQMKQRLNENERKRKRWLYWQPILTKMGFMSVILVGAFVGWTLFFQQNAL
Protocol: as §1

[3] = molecular target: T1, PTP1B; experiment: Degradation assay in HEK293 cells (immunoblotting); type: cell-based; parameters: endogenous in cells; host or cells: HEK293; details: 0.2 μM degrader, 16 hours
Protocol: (§2) HEK293. MIAPaCa-2, HepG2, U2OS, H116, MEF, B16F10, and MC38 cells, were grown in DMEM, while Jurkat and H358 cells were grown in RPMI 1640 supplemented with 10% fetal bovine serum, penicillin (50 units/mL), and streptomycin (50 μg/mL) in a 37° C. incubator containing 5% CO2. 20 ng/ml human (Biolegend #713906) or mouse (Biolegend #714006) Interferon-γ were used for JAK/STAT pathway stimulation.
(§3) Tissues or cultured cells were lysed with ice-cold lysis buffer (50 mM Tris (pH 8.0, 150 mM NaCl, 10% Glycerol, 1% Triton-X-100) supplied with phosphatase inhibitor (Bimake) and protease inhibitor mixture (Roche Applied Science). Equal amounts of protein were resolved by SDS-PAGE, transferred to nitrocellulose membrane, and subjected to immunoblotting. Antibodies used in this study include anti-following proteins: pSTAT1^Tyr701 (Cell Signaling Technology #9167, 1:3000), GAPDH (Cell Signaling Technology #97166, 1:5000), pJAK1^Tyr1034/1035 (Cell Signaling Technology #74129, 1:1000), pJAK2^Tyr1007/1008 (Cell Signaling Technology #3776, 1:1000), TC-PTP (Abcam #ab180764, 1:3000). PTP1B (Abcam #ab244207, 1:1500).
(§4) Degradation assay was conducted in HEK293 cells with 1 μM degrader and 24 hours incubation.
(§5) The degradation assay was conducted in HEK293 cells with 0.2 μM degrader and 16 hours incubation.

[4] = molecular target: T2, TC-PTP; experiment: Degradation assay in HEK293 cells (immunoblotting); type: cell-based; parameters: endogenous in cells; host or cells: HEK293; details: 0.2 μM degrader, 16 hours, read-out: % Protein Degradation TC-PTP
Protocol: as §2, §3, §4, §5

[5] = pNPP 2 mM, pH 7.0, 25° C., read-out: IC50, nM PTP1B
[6] = pNPP 2 mM, pH 7.0, 25° C., read-out: IC50, nM TC-PTP

| SMILES | IC50 [1, 5] [nM] | IC50 [2, 6] [nM] | % Protein Degradation PTP1B [3] [%] | percent TC-PTP degradation at 0.2 µM [4] [%] | IC50 [1] [nM] | IC50 [2] [nM] |
| --- | --- | --- | --- | --- | --- | --- |
| COc1cc(CC(=O)N[C@@H](Cc2ccccc2)C(=O)N[C@@H](Cc2ccc(C(F)(F)P(=O)(O)O)cc2)C(=O)N[C@@H](CCCCNC(=O)c2ccc(C)c(Br)c2)C(=O)NCc2cccc(CC(=O)N[C@H](C(=O)N3C[C@H](O)C[C@H]3C(=O)NCc3ccc(-c4scnc4C)cc3)C(C)(C)C)c2)ccc1O [Compound 48, ((4-((S)-3-(((S)-6-(3-bromo-4-methylbenzamido)-1-((3-(2-(((S)-1-((2S,4R)-4-hydroxy-2-((4-(4-methylthiazol-5-yl)benzyl)carbamoyl)pyrrolidin-1-yl)-3,3-dimethyl-1-oxobutan-2-yl)amino)-2-oxoethyl)benzyl)amino)-1-oxohexan-2-yl)amino)-2-((S)-2-(2-(4-hydroxy-3-methoxyphenyl)acetamido)-3-phenylpropanamido)-3-oxopropyl)phenyl)difluoromethyl)phosphonic Acid] ({Phenylacetyl(4-OH,3-OMe)}-F[F2Pmp]K(Benzoyl(3-Br,4-Me))[NHCH2(1,3-C6H4)CH2CO][Tle][Hyp]-{NHBn(4-(4-Me-thiazol-5-yl))}) | 16.7 ± 3.3 | 11.5 ± 0.6 | 75 | 70 | – | – |
| COc1cc(CC(=O)N[C@@H](Cc2ccccc2)C(=O)N[C@@H](Cc2ccc(C(F)(F)P(=O)(O)O)cc2)C(=O)N[C@@H](CCCCNC(=O)c2ccc(C)c(Br)c2)C(=O)NCCOCCC(=O)N[C@H](C(=O)N2C[C@H](O)C[C@H]2C(=O)NCc2ccc(-c3scnc3C)cc2)C(C)(C)C)ccc1O [Compound 28, ((4-((2S,5S,15S)-5-(4-(3-bromo-4-methylbenzamido)butyl)-15-((2S,4R)-4-hydroxy-2-((4-(4-methylthiazol-5-yl)benzyl)carbamoyl)pyrrolidine-1-carbonyl)-2-((S)-2-(2-(4-hydroxy-3-methoxyphenyl)acetamido)-3-phenylpropanamido)-16,16-dimethyl-3,6,13-trioxo-10-oxa-4,7,14-triazaheptadecyl)phenyl)difluoromethyl)phosphonic Acid] ({Phenylacetyl(4-OH,3-OMe)}-F[F2Pmp]K(Benzoyl(3-Br,4-Me))[PEG1][Tle][Hyp]-{NHBn(4-(4-Me-thiazol-5-yl))}) | 15.4 ± 3.3 | 11.2 ± 1.3 | 45 | 47 | – | – |
| COc1cc(CC(=O)N[C@@H](Cc2ccccc2)C(=O)N[C@@H](Cc2ccc(C(F)(F)P(=O)(O)O)cc2)C(=O)N[C@@H](CCCCNC(=O)c2ccc(C)c(Br)c2)C(=O)N2CCC(CCC(=O)N[C@H](C(=O)N3C[C@H](O)C[C@H]3C(=O)NCc3ccc(-c4scnc4C)cc3)C(C)(C)C)CC2)ccc1O [Compound 58, ((4-((S)-3-(((S)-6-(3-bromo-4-methylbenzamido)-1-(4-(3-(((S)-1-((2S,4R)-4-hydroxy-2-((4-(4-methylthiazol-5-yl)benzyl)carbamoyl)pyrrolidin-1-yl)-3,3-dimethyl-1-oxobutan-2-yl)amino)-3-oxopropyl)piperidin-1-yl)-1-oxohexan-2-yl)amino)-2-((S)-2-(2-(4-hydroxy-3-methoxyphenyl)acetamido)-3-phenylpropanamido)-3-oxopropyl)phenyl)difluoromethyl)phosphonic Acid] ({Phenylacetyl(4-OH,3-OMe)}-F[F2Pmp]K(Benzoyl(3-Br,4-Me))[X3][Tle][Hyp]-{NHBn(4-(4-Me-thiazol-5-yl))}) | 8.9 ± 0.5 | 8 ± 0.7 | 26 | 32 | – | – |
| COc1cc(CC(=O)N[C@@H](Cc2ccccc2)C(=O)N[C@@H](Cc2ccc(C(F)(F)P(=O)(O)O)cc2)C(=O)N[C@@H](CCCCNC(=O)c2ccc(C)c(Br)c2)C(=O)NCc2ccc(C(=O)N[C@H](C(=O)N3C[C@H](O)C[C@H]3C(=O)NCc3ccc(-c4scnc4C)cc3)C(C)(C)C)cc2)ccc1O [Compound 54, ((4-((S)-3-(((S)-6-(3-bromo-4-methylbenzamido)-1-((4-(((S)-1-((2S,4R)-4-hydroxy-2-((4-(4-methylthiazol-5-yl)benzyl)carbamoyl)pyrrolidin-1-yl)-3,3-dimethyl-1-oxobutan-2-yl)carbamoyl)benzyl)amino)-1-oxohexan-2-yl)amino)-2-((S)-2-(2-(4-hydroxy-3-methoxyphenyl)acetamido)-3-phenylpropanamido)-3-oxopropyl)phenyl)difluoromethyl)phosphonic Acid] ({Phenylacetyl(4-OH,3-OMe)}-F[F2Pmp]K(Benzoyl(3-Br,4-Me))[4Amb][Tle][Hyp]-{NHBn(4-(4-Me-thiazol-5-yl))}) | 51.2 ± 14.4 | 21.3 ± 1.7 | 24 | 37 | – | – |
| COc1cc(CC(=O)N[C@@H](Cc2ccccc2)C(=O)N[C@@H](Cc2ccc(C(F)(F)P(=O)(O)O)cc2)C(=O)N[C@@H](CCCCNC(=O)c2ccc(C)c(Br)c2)C(=O)NCc2ccccc2CCC(=O)N[C@H](C(=O)N2C[C@H](O)C[C@H]2C(=O)NCc2ccc(-c3scnc3C)cc2)C(C)(C)C)ccc1O (stereo in doubt) [Compound 40, ((4-((S)-3-(((S)-6-(3-bromo-4-methylbenzamido)-1-((2-(3-(((S)-1-((2S,4R)-4-hydroxy-2-((4-(4-methylthiazol-5-yl)benzyl)carbamoyl)pyrrolidin-1-yl)-3,3-dimenthyl-1-oxobutan-2-yl)amino)-3-oxopropyl)benzyl)amino)-1-oxohexan-2-yl)amino)-2-((S)-2-(2-(4-hydroxy-3-methoxyphenyl)acetamido)-3-phenylpropanamido)-3-oxopropyl)phenyl)difluoromethyl)phosphonic Acid] | – | – | 16 | 0 | 3.8 ± 0.4 | 2.9 ± 0.5 |
